Here are results for four molecules from article doi:10.1101/2023.02.27.530254, “Large library docking for cannabinoid-1 receptor agonists with reduced side effects” (bioRxiv, 2024).

A word on the EC50: it is the concentration needed to bring the measured effect to its halfway point. Usually Emax stands for the maximal effect, on the per cent scale that the assay sets. What is called half-life is how long it takes for the measured level to halve. Read a low half-life as rapid decline. In general, Cmax refers to the highest concentration seen after dosing.

For one data set, the target named is hCB1 (Homo sapiens, UniProt P21554). Briefly: GloSensor cAMP accumulation assay. The note with it: for Emax: read-out: hCB1 Glosensor cAMP Emax [95% CI]. In kind it is cell-based. Further details: host or cells: HEK293 (HEK293SL clone), transient. On the procedure: The results were analysed using GraphPad Prism 9.1. Each experiment was performed in triplicate and functional IC50 values were determined from the mean of three independent experiments.
On the technique in general: Cyclic AMP is a second messenger, typically raised through Gs and lowered through Gi signalling.

Data set [1] addresses T1, hCB2 (Homo sapiens, UniProt P34972). The data set is described as follows: Cerep cAMP assay. In kind it is cell-based.
The next data set relates to GPR55, GPR18, GPR119. Briefly: PRESTO-Tango GPCRome arrestin-recruitment screen. Type of data set: cell-based. The note with it: tested at 10 μM. On the procedure: Compound ‘4042 was tested at 10 μM for off-target activity against a panel of 320 non-olfactory GPCRs using PRESTO-Tango GPCRome arrestin-recruitment assay, as described. Receptors with at least three-fold increased relative luminescence over corresponding basal activity are potential positive hits, and were tested in dose response follow-up studies. Compound ‘4042 was further tested at 1 μM for off-target activity at a panel of 45 common GPCR and non-GPCR drug targets. Receptors with at least 50% displaced radioligand are potential positive hits and were tested in dose response follow-up studies. Screening was performed by the National Institutes of Mental Health Psychoactive Drug Screen Program (PDSP)[81].

Data set [2] is described as follows: Pharmacokinetics in plasma, brain and CSF. The note with it: 0.2 mg/kg i.p., mice; for half-life: in vivo. Type of data set: in vivo, CD-1 mice. On the procedure: The batches of working formulations were prepared 5–10 minutes prior to the in vivo study. […] There was also a one mouse control group. All animals were fasted for 4 h before dosing. Mice were injected i.p. with 2,2,2-tribromoethanol at the dose of 150 mg/kg prior to drawing CSF and blood. Blood collection was performed from the orbital sinus in microtainers containing K3EDTA. CSF was collected under a stereomicroscope from cisterna magna using 1 mL syringes. Animals were sacrificed by cervical dislocation after the blood samples collection. After this, right lobe brain samples were collected and weighted. All samples were immediately processed, flash-frozen and stored at −70°C until subsequent analysis.
Plasma samples (40 μL) were mixed with 200 μL of internal standard solution. After mixing by pipetting and centrifuging for 4 min at 6,000 rpm, supernatant was injected into LC-MS/MS system. […] After this, the samples were centrifuged for 4 min at 14,000 rpm, and supernatant was injected into LC-MS/MS system. CSF samples (4 μL) were mixed with 100 μL of IS(80) solution. After mixing by pipetting and centrifuging for 4 min at 6,000 rpm, 1–6 μL of each supernatant was injected into LC-MS/MS system.
Analyses of plasma, brain and CSF samples were conducted at Enamine/Bienta. The concentrations of compounds in samples were determined using high performance liquid chromatography/tandem mass spectrometry (HPLC-MS/MS) method. Data acquisition and system control was performed using Analyst 1.6.3 software (AB Sciex, Canada). The concentrations of the test compound below the lower limit of quantitation (LLOQ: 2–5 ng/mL for plasma and CSF, 1–5 ng/g for brain) were designated as zero. The pharmacokinetic data analysis was performed using noncompartmental, bolus injection or extravascular input analysis models in WinNonlin 5.2 (PharSight). Data below LLOQ were presented as missing to improve validity of T½ calculations.

In data set [3] the test system is C56BL/6 mice. Briefly: Mechanical thresholds (von Frey), SNI model of neuropathic pain and naive mice. Type of data set: in vivo, mouse. On the procedure: (§1) Hindpaw mechanical thresholds were determined with von Frey filaments using the up-down method. […] Each training has three sessions of five min. each.
Under isoflurane anesthesia, two of the three branches of the sciatic nerve were ligated and transected distally, leaving the sural nerve intact. Behavior was tested 7 to 14 days after injury.

The subject of data set [4] is C56BL/6 mice. The data set is described as follows: Formalin test. Type of data set: in vivo, mouse. The note with it: 0.2 mg/kg i.p., 60 min observation. On the procedure: Thirty minutes after an i.p. injection of the compounds, mice received an intraplantar injection of a 20μl solution containing 2% formalin (Acros Organics) and we recorded the time mice spent licking/biting/guarding (nocifensive behaviors) the injected hindpaw over the next 60 min.

In data set [5] the test system is C56BL/6 mice. The data set is described as follows: Rotarod test of sedation. In kind it is in vivo, mouse. The note with it: for dose showing motor deficits: rotarod test. On the procedure: as §1
A general note: Falling from the rotarod earlier than controls is read as motor impairment.

Data set [6] has as its system C56BL/6 mice. The data set is described as follows: Conditioned place preference. The note with it: mouse, in vivo. As to the method:
To determine if ‘4042 was inherently rewarding or aversive we used the conditioned place paradigm as described. Briefly, mice were first habituated to the test apparatus, twice, and their preference for each chamber recorded for 30 minutes (Pretest). Two conditioning days followed in which mice received the vehicle control or the compound, and 30 minutes later restricted for 30 minutes in the preferred or non-preferred chamber, respectively. On day 5 (Test day), mice were allowed to roam freely between the 3 chambers of the apparatus and their preference for each chamber recorded for 30 minutes. To calculate the CPP score, we subtracted the time spent in each chamber of the box on the Pretest day from that of the Test day (CPP score = Test - Pretest).

Data set [7] addresses T1, hCB2. Briefly: Radioligand competition binding with [3H]-CP-55,940, HEK293 cells stably expressing human CB2R. More on the design: expressed in transfected cells. The note with it: Fig. S8, read-out: hCB2 pKi (converted). On the procedure: The binding affinities of the compounds were obtained by competition binding using membrane preparations from rat brain (source of CB1) or HEK293 cells stably expressing human CB2R receptors and [^3H]-CP-55,940 as the radioligand, as described. The results were analyzed using nonlinear regression to determine the IC50 and Ki values for each ligand (Prism by GraphPad Software, Inc., San Diego, CA). The Ki values are expressed as the mean of two to three experiments each performed in triplicate.
A general note: Displacement assays read how much labelled ligand stays bound in the presence of the test substance.

The next data set has as its target T2, CB1R (Homo sapiens, UniProt P21554, C107A/C139A/C149A/C238A/C355A/C382A/C386A/C415A/C431A/C449A/C98A/R336C).
T2 construct: N-terminal FLAG tag and C-terminal histidine tag was added to human full-length CB1; FLAG (N); histidine tag (C); made in house; host or cells: Spodoptera frugiperda Sf9 (baculovirus)
The data set is described as follows: Bimane fluorescence of TM6-labeled minimal cysteine CB1R. In kind it is biochemical. The note with it: 10 μM ligand; apo 459 nm. On the procedure: A minimal cysteine version of CB1R was generated[73] where all the cysteine residues (except C256 and C264) were mutated to alanine. […] Excess label was removed using size exclusion chromatography on a Superdex 200 10/300 Increase column in 20 mM HEPES pH 7.5, 100 mM NaCl and 0.01% MNG/0.001% CHS. Bimane-labeled CB1R at […] was incubated with ligands (10 μM) for one hour at room temperature. Fluorescence data was collected at room temperature in a 150 μL cuvette with a FluorEssence v3.8 software on a Fluorolog instrument (Horiba) in photon-counting mode. Bimane fluorescence was measured by excitation at 370 nm with excitation and emission bandwidth passes of 4 nm. The emission spectra were recorded from 410 to 510 nm with 1 nm increment and 0.1 s integration time.

Molecules are shown by their SMILES. Where “and” joins values, the source holds several entries; their conditions need not be identical. Equal entries are not always repeated. Where two headings read alike, the source gives them in different places.

hCB1, sequence (P21554 whole entry): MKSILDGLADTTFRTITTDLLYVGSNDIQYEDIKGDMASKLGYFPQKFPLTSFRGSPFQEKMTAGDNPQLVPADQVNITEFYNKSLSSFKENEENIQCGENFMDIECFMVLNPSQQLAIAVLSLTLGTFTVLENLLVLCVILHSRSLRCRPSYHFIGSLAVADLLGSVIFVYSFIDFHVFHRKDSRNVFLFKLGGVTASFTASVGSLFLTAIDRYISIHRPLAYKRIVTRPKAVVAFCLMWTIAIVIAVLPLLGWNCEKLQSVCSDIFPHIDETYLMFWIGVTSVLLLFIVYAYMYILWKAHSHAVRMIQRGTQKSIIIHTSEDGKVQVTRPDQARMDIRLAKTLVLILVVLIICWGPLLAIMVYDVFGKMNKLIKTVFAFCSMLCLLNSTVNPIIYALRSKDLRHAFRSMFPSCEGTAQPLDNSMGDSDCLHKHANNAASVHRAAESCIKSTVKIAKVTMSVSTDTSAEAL
T1 sequence (P34972 whole entry): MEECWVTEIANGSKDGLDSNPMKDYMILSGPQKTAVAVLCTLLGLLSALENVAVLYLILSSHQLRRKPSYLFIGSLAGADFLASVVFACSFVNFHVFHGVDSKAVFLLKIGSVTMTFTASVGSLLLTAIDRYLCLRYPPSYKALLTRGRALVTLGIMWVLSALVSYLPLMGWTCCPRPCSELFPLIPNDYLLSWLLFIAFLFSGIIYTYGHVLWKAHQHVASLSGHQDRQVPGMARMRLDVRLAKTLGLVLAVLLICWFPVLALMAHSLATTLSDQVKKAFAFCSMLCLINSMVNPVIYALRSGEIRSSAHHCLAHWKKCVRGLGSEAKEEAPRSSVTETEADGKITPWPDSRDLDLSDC
T2 sequence (P21554 whole entry C98A/C107A/C139A/C149A/C238A/R336C/C355A/C382A/C386A/C415A/C431A/C449A): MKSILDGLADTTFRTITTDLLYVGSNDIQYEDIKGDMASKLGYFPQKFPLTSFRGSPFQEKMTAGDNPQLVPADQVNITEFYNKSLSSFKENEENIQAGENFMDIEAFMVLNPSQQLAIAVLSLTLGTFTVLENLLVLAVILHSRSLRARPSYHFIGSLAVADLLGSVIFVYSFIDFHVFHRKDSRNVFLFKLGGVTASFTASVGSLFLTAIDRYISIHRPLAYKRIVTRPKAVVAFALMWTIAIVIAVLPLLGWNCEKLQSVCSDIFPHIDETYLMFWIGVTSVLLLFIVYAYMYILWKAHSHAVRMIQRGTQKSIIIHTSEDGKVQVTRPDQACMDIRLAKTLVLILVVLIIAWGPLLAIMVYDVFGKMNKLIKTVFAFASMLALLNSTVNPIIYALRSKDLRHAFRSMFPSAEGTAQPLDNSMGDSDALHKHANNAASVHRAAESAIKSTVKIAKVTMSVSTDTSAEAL

Turning to `COC(=O)C(NC(=O)c1cc(C)n(-c2cccc(C(F)(F)F)c2)n1)c1cccs1` (stereo not drawn) [‘60154], at hCB1, the EC50 was 25.1 nM and the Emax was 82%.
Consider `COC(=O)C(C)(NC(=O)c1cc(C)n(-c2cccc(C(F)(F)F)c2)n1)c1cccs1` (stereo not drawn) [‘4042], for which the EC50 was 0.0112 nM on hCB2 [1] and 0.0398 nM on hCB1. In addition, the Emax at hCB2 [1] (read-out: hCB2 Cerep cAMP Emax [95% CI]) turned out to be 72%; at hCB1, 91%. The “agonist activity at putative cannabinoid receptors” value with GPR55, GPR18, GPR119 is on record as “no agonist activity”. In data set [2], this molecule yielded a Cmax brain of 16.8 ng/g. For the same molecule, the “compartments in which compound was found” value in data set [2] was “appreciably in brain and plasma, but not CSF compartments”. Further, the AUC(0-inf) was 0.053 µg·h/mL in data set [2] (male, CD-1, mouse, brain, ip, read-out: AUC0→inf brain tissue (converted)) and 0.0225 µg·h/mL in [2] (male, CD-1, mouse, plasma, ip, read-out: AUC0→inf plasma (converted)). The molecule further gave a half-life in data set [2] (male, CD-1, mouse, ip) of 1.9 h. Besides, the Cmax in data set [2] (male, CD-1, mouse, plasma, ip) is 5.14 ng/mL and 12 nM. In addition, the “effect on SNI mechanical allodynia” value with C56BL/6 mice [3] (0.2 mg/kg i.p.) was “did not counter the mechanical allodynia”; in the data set on C56BL/6 mice [3] (intrathecal, up to 100 μg/kg), “modest anti-allodynic effect”. Besides, the “effect on mechanical thresholds of naïve (non-SNI) animals” value in the data set on C56BL/6 mice [3] (0.2 mg/kg i.p.) is “did not alter the mechanical thresholds”. Besides, the “duration of phase 1 and phase 2 nocifensive behaviors” value in the data set with C56BL/6 mice [4] is reported as “profoundly decreased”. Moreover, the “dose showing motor deficits” value with C56BL/6 mice [5] is 1.0 mg/kg. In the data set on C56BL/6 mice [6], the conditioned place preference entry was “does not induce preference”. Besides, the Ki at hCB2 [7] is 2.51 nM.
Take `COC(=O)[C@@](C)(NC(=O)c1cc(C)n(-c2cccc(C(F)(F)F)c2)n1)c1cccs1` [‘1350]: the “window between heat-based response and sedation” value with C56BL/6 mice [5] (rotarod) is “only five-fold”. In addition, in the data set with C56BL/6 mice [5], the “dose showing motor deficits” value turned out to be 0.5 mg/kg. Besides, the “bimane spectrum λmax” value at CB1R is reported as 463 nm.
As to `CCCCCCC(C)(C)c1ccc([C@@H]2C[C@H](O)CC[C@H]2CCCO)c(O)c1` [CP-55,940, reference compound], in data set [2], the Cmax brain is reported as 19.2 ng/g and the “plasma Cmax increase compared to ‘4042” value is on record as around 10 fold. In [2] (male, CD-1, mouse, ip), this molecule had a half-life of 2.12 h. In addition, in the data set with C56BL/6 mice [6], the conditioned place preference entry is given as “may actually induce some aversion”.
